The values below come from PubChem BioAssay (NCI).

The test concerns MDA-MB-468 breast. The experiment in a line: NCI-60 cell line screen, 48 h.

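The compound was tested at five concentrations on cells cultured in 96-well plates, with a 48-hour exposure period. GI50 = concentration required for 50% inhibition of growth. Definition used: TGI = concentration required for complete inhibition of growth.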

`N#Cc1cnc2cc(OC[C@@H](O)CO)c(NC(=O)CC3CSSC3)cc2c1Nc1ccc(OCc2cccc(F)c2)c(Cl)c1`: the GI50 was 0.0698 µM and the TGI was 0.155 µM.

For the molecule `COCCOC(=O)NC(=O)Nc1ccc(/C(=N/O)c2ccc(Cl)cc2)cc1`, the GI50 was 0.0813 µM and the TGI was 0.616 µM.

For the molecule `CCN1C(=S)N(CC)C2C1NC(=S)N2/N=C/C=C/c1ccccc1` (stereo not drawn), the GI50 was 0.458 µM and the TGI turned out to be 4.19 µM.

For `CC1=C[C@H]2c3c(c(O)c(O)c4oc5ccccc5c(=O)c34)[C@H](c3cc(O)c(O)c4oc5ccccc5c(=O)c34)[C@H]2C(C)(C)C1`, the GI50 was 2.02 µM and the TGI was 6.04 µM.

Consider `O=C(c1ccc2ncc(-c3nc(NC4CC4)ncc3F)n2c1)N1CCOCC1`, for which the GI50 is 1.79 µM and the TGI stood at 4.34 µM.

`NC(=O)c1cc(Br)cc(C2CCCCC2)c1O`: the GI50 was 13.8 µM and the TGI worked out at 29.2 µM.

Regarding `Cc1cc(C)c(C[N+](C)(C)C)c(C)c1C`, the GI50 is 0.495 µM and the TGI was determined as 9.2 µM.

With `CN(C)CCCN1c2nc3ccccc3cc2Sc2cc3ccccc3nc21`, the GI50 was 1.65 µM and the TGI is 4.44 µM.

As for `COc1ccc(/C=C/c2nc(NCCCN(C)C)c3ccccc3n2)cc1`, the GI50 is 1.31 µM and the TGI came out at 2.64 µM.

For `N=C(N=C(N)N)N1CCN(c2ccncc2)CC1`, the GI50 was above 1000 µM and the TGI was above 1000 µM.

With `O=c1nc(Nc2cccc(Cl)c2)oc2cc(Cl)oc(=O)c12`, the GI50 is 2.44 µM and the TGI stood at 6.75 µM.

With `CCOC(=O)c1[nH]c(-c2ccc(Cl)cc2)cc1-c1cccnc1`, the GI50 is 0.493 µM and the TGI was found to be 4.33 µM.

For the molecule `NC1CCN(c2nc(Nc3cccc(C(F)(F)F)c3)c3c(=O)[nH]ccc3n2)CC1`, the GI50 is 1.49 µM and the TGI came out at 2.98 µM.

Regarding `COc1cc(/C=C\[N+](=O)[O-])ccc1OCc1ccccc1`, the GI50 was 1.47 µM and the TGI amounted to 3.26 µM.

With `Clc1ccc2[nH]cc(-c3nc(-c4c[nH]c5ncccc45)cs3)c2c1`, the GI50 is 2.62 µM and the TGI was found to be 9.41 µM.

As to `C=C1C(=O)O[C@H]2[C@H]1CC/C(COC(=O)NCc1ccc(Cn3c(=O)sn(CCCCl)c3=O)cc1)=C\CC[C@@]1(C)O[C@@H]21`, the GI50 was 1.53 µM and the TGI worked out at 4.33 µM.

Regarding `COc1ccc2c(Nc3ccc(NS(C)(=O)=O)cc3)c3ccccc3nc2c1`, the GI50 was 0.414 µM and the TGI was 1.74 µM.

For `O=C(Nc1ccc(F)cc1)c1c(NC(=O)C(F)(F)F)sc2c1CCCCC2`, the GI50 is 1.04 µM and the TGI turned out to be 4.85 µM.

Turning to `Nc1nnc2cc(Cl)ccc2n1`, the GI50 was above 100 µM and the TGI was above 100 µM.

With `COC1CC2C=C(C)/C=C/C=C/C(=O)NC(c3ccccc3)C/C=C/CCC(O)CC(=O)C2=C1O` (stereo not drawn), the GI50 was 0.283 µM and the TGI worked out at 1.24 µM.

On to `Cn1c(=O)c(Oc2ccccc2F)cc2cnc(NC3CCOCC3)nc21`, for which the GI50 was above 25 µM and the TGI is above 25 µM.

As to `CCOC(=O)C(=Cc1ccccc1[N+](=O)[O-])C(=O)OCC`, the GI50 was 1.53 µM and the TGI worked out at 4.68 µM.

For `Cc1nc2sc(C(=O)Nc3cccc4ccccc34)c(N)c2cc1C(=O)c1ccccc1`, the GI50 was 1.66 µM and the TGI was above 50 µM.

As to `ClC(Cl)c1nc(-c2cccnc2)n2nc(-c3ccccc3)cc2n1`, the GI50 was 0.247 µM and the TGI came out at 0.793 µM.

Turning to `OCC1OC(n2ccc3c(NO)ncnc32)C(O)C1O` (stereo not drawn), the GI50 is 0.122 µM and the TGI amounted to 0.777 µM.

As for `COc1ccc(-c2cc(/C=C3\C(=O)Nc4ccc(Cl)cc43)[nH]n2)cc1`, the GI50 is 3.6 µM and the TGI worked out at 13.5 µM.

In the case of `CC(C)c1ccc(C(=O)Nc2sc3c(c2C#N)CCC(=O)C3)cc1`, the GI50 was 0.389 µM and the TGI was determined as 2.4 µM.

Turning to `CC(=O)[C@@H]1CCC=C2CC[C@]3(C)[C@@H](CC[C@@H]4[C@@]5(C)CCCNC(C)(C)[C@@H]5CC[C@]43C)[C@H]21`, the GI50 was 1.78 µM and the TGI was determined as 3.43 µM.

With `COC(=O)c1c2c(c(C)[n+]([O-])c1C)C(=O)C=C(NCc1ccc(F)c(F)c1)C2=O`, the GI50 was 0.242 µM and the TGI was 0.705 µM.

With `O=[N+]([O-])c1ccc(N/N=C/c2c(O)ccc3ccccc23)nc1`, the GI50 was 4.47 µM and the TGI is 49.4 µM.

For `CCCCCCCCCCN(CCCCCCCCCC)CC(=O)c1ccc2cc(Br)c3ccccc3c2c1`, the GI50 is 1.7 µM and the TGI turned out to be 3.14 µM.

Take `Cc1cc(CNC(=O)OCc2ccccc2)c(C)c2c1Oc1ccccc1O2`: the GI50 is 95.6 µM and the TGI was above 100 µM.

In the case of `CC/C=C\C[C@H](O)C/C=C1/C(=O)C=C[C@@H]1C/C=C\CCCC(=O)N(C)C`, the GI50 was 1.43 µM and the TGI was found to be 3.38 µM.

On to `NNc1cccc(/C=C/c2ccccc2)cc1=O`, for which the GI50 is 8.46 µM and the TGI is 90.7 µM.
